Patent US5476847A, “Derivatives of phosphinic acid useful as endothelin converting enzyme inhibitors” (priority 1994, dated 1995)
Structures can show the parent of a compound that is named as a salt. Ends that are not written are not given here.

Legend:
[1] = S. Bertenshaw, et al, J. Med. Chem., 36(1993); cited from earlier work
[2] = system: I/H-induced ET-1 release in isolated perfused guinea pig lungs; assay: Isolated Perfused Guinea Pig Lung Method (ischemia/hypoxia, I/H); format: in vivo; conditions: for elevation in PIP produced by I/H (FIG. 4): subcutaneous
Method: The method is as described by Vemulapalli et al., in J. PharmacoL Exp. Therap., 262, 3 (1992), pp. 1062-1069. Briefly, male Dunkin-Hartley guinea pigs (400-600 g) are anesthetized with pentobarbital 30 mg/kg, ip. The trachea is cannulated to facilitate respiration. The right jugular vein is cannulated to administer saline vehicle or test compound, or compounds are administered orally or subcutaneously. Ten minutes after the administration of saline vehicle or test compound, a thoracotomy is performed and the trachea, lungs and heart are removed intact and placed in warmed Tyrode's buffer (34°-35° C.) of the following composition in mM: NaCl 120, KCl 4.8, MgSO4.7H2 O 1.2, KH2 PO4 1.2, NaHCO3 25, CaCl2.2H2 O […], glucose 11 and BSA 0.5%. The pulmonary artery and trachea are cannulated and the lungs are mounted on a perfusion apparatus. Lungs are perfused at a rate of 3.2 ml/min via the pulmonary artery with oxygenated (95% O 2 and 5% CO2) Tyrode's solution maintained at 34°-35° C. The lungs are mechanically ventilated with room air with a volume of 2.5 ml/stroke and 50 strokes/min. Pulmonary insufflation pressure (PIP) is monitored through a side arm of the perfusion apparatus with a Statham pressure transducer and recorded on a Grass polygraph. Lungs are allowed to stabilize for 15 min. Lung effluents (50 ml) are collected every 15 min into chilled polypropylene centrifuge tubes (Corning) containing 100 μl each of aprotinin (200 kallikrein inhibitory units/ml) and soybean trypsin inhibitor (20N-α-benzoyl-L-arginine ethyl ester units/ml). Ischemia-hypoxia (I/H) is produced by cessation of ventilation and perfusion for 15 min followed by reperfusion and reventilation for 60 min. At the end of the experiment, the lungs are tested for cardiopulmonary reactivity by challenging with 5-hydroxy-tryptamine (0.5 mg) directly into the lungs via a pulmonary artery cannula.
In a separate study, anesthetized guinea pigs are administered saline vehicle or test compound. Ten minutes later, the lungs are removed and mounted on a perfusion apparatus as described above. After an equilibration period of 15 min, BET-1 (30 μg over 15 min) or ET-1 (0.6 μg over 15 min) is infused directly into the perfusion medium and the effects on PIP in vehicle and test compound-treated guinea pig lungs are assessed.
FIGS. 3 to 6 show the results of four compounds of the invention on I/H-induced ET-1 release in isolated perfused guinea pig lungs. The compounds include Compounds A and B, identified above, and: […]

ECE = assay: BET Challenge Method (pressor response to BET-1 in anesthetized rats); conditions: BET-1 5 μg/kg
Method: ECE in vivo activity is determined as described by Vemulapalli et al.,in Life Sciences, 53 (1993), pp. 783-793. Briefly, male Charles River CD rats (Wilmington, Mass.) weighing 250-275 g are anesthetized with Inactin, 100 mg/kg, ip. The trachea is catheterized. The right carotid artery and the right jugular vein are cannulated to record blood pressure (BP) and to infuse drugs, respectively. […] The rectal temperature is kept at 37° C. After an equilibration period of 15-30 min, the rats are infused with saline vehicle (20 μl/min) or test compounds (0.01-0.25 mg/kg/min) throughout the study. Thirty minutes after the start of infusion, the rats are challenged with BET-1 (5 μg/kg) via the venous catheter, and the BP is monitored for another 15 min.

## ET-1: endothelin-1, peptide with potent vasoconstrictive and mitogenic activity (CSCSSLMDKECVYFCHLDIIW; ends and bridges not checked; cysteine pairing not given here; UniProt P05305 53-73, looked up)
[1]
  times more potent than its precursor big-endothelin-1 (BET-1): approximately 100 times

## CC(C)CC(CP(=O)(O)C(Cc1ccccc1)NC(=O)C(CC(C)C)NC(=O)OCc1ccccc1)C(=O)NC(Cc1c[nH]c2ccccc12)C(=O)O (centres unmarked) [Compound D, N-[2-[[hydroxy[2-[1-[4-methyl-1-oxo-2-[[(phenylmethoxy)carbonyl]amino]pentyl]amino]-2-phenylethyl]phosphinyl]methyl]-4-methyl-1-oxopentyl]-tryptophan]
[2]; iv, 10 mg/kg
  ET-1 release following I/H (FIG. 6): attenuation

## CC(C)CC(CP(=O)(O)C(Cc1ccc2ccccc2c1)NC(=O)[C@H](CCCCNC(=O)OCc1ccccc1)NS(C)(=O)=O)C(=O)N[C@@H](Cc1c[nH]c2ccccc12)C(=O)O (stereo partly drawn) [Compound B, N-[2-[[hydroxy[1-[[2(S)-[(methylsulfonyl)amino]-1-oxo-6-[[phenylmethoxy)-carbonyl]amino]hexyl]amino]-2-(2-naphthalenyl)ethyl]phosphinyl]methyl]-4-methyl-1-oxopentyl]-L-tryptophan disodium salt]
[2]; 3 mg/kg, 1 hour
  elevation in PIP produced by I/H (FIG. 4): attenuated
[2]; 10 mg/kg, 6 hours
  elevation in PIP produced by I/H (FIG. 4): attenuated
[2]; 30 mg/kg, 6 hours
  elevation in PIP produced by I/H (FIG. 4): attenuated
ECE; 0.1 mg/kg/min infusion, result in words
  effect on blood pressure response to BET-1 challenge, compared to vehicle (FIG. 2): does not have an effect
ECE; 0.3 mg/kg/min infusion
  lower blood pressure in response to the BET-1 challenge, compared to vehicle (FIG. 2): ~22 mmHg

## CS(=O)(=O)N[C@@H](CCCCN)C(=O)N[C@@H](Cc1ccccc1)P(=O)(O)CC1(C(=O)N[C@@H](Cc2c[nH]c3ccccc23)C(=O)[O-])CCCC1.[Li+] [Example 5, N-[[1-[[hydroxy-[1(R)-[[6-amino-2(S)-[(methylsulfonyl)amino]-1-oxohexyl]-amino]-2-phenylethyl]phosphinyl]methyl]cyclopentyl]carbonyl]-L-tryptophan lithium salt]
ECE; 0.1 mg/kg/min infusion
  lower blood pressure in response to the BET-1 challenge, compared to vehicle (FIG. 1): ~15 mmHg
